Here are results for one compound from patent EP0947515A1, “NOVEL NAPHTHYRIDINE DERIVATIVES” (SUMITOMO PHARMACEUTICALS COMPANY, LIMITED, priority 1996, dated 1998).

Molecules are shown by their SMILES.

Test [1] concerns ACAT. The test can be described thus: Assay of ACAT inhibitory activity in a specimen prepared from rabbit liver. Conditions: enzyme specimen from liver of cholesterol-fed rabbit, [1-14C]oleoyl-CoA and endogenous cholesterol, 0.1 µM. The format is biochemical, New Zealand white rabbit. How it is done:
1. Assay of ACAT inhibitory activity in a specimen prepared from rabbit liver
An enzyme specimen ACAT was prepared according to the method disclosed in the literature: J. Lipid. Research, 30, 681-690, 1989, from the liver of New Zealand white rabbit, which had been fed with 1 % cholesterol feed for one month. The ACAT activity was determined according to the method disclosed in the literature: J. Lipid Research, 24, 1127-1134, 1983, i.e., using radioactive [1-14C]oleoyl-CoA and endogenous cholesterol contained in the liver microsome, and calculated from the radioactivity of the labeled cholesterol oleate.

Test [2] deals with T1, ACAT (Rattus norvegicus, UniProt O70536).
T1 construct: The rat peritoneal-derived macrophage was prepared; endogenous in cells; host or cells: rat peritoneal macrophages (primary)
T1 sequence (O70536 1-545): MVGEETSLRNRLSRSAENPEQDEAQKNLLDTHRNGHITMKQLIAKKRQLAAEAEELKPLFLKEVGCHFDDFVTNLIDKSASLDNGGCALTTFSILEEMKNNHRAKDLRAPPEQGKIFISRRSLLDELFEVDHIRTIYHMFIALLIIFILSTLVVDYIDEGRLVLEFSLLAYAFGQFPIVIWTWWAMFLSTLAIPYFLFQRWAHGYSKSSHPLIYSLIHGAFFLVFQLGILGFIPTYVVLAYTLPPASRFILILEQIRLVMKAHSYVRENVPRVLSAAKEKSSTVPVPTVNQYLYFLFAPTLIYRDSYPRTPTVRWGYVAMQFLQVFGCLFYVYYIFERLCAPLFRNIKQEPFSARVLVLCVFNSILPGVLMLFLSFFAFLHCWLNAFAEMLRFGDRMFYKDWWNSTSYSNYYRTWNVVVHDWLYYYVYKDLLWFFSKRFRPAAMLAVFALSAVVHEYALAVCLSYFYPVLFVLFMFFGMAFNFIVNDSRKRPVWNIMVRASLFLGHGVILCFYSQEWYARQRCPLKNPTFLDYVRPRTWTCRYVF
The test can be described thus: Assay of ACAT inhibitory activity in the macrophage derived from rat peritoneal. The format is cell-based. Conditions: 10^-7 M, radioactive oleic acid and exogenous cholesterol in liposome, read-out: ACAT inhibitory rate (%) 10^-7 M. How it is done:
2. Assay of ACAT inhibitory activity in the macrophage derived from rat peritoneal
The rat peritoneal-derived macrophage was prepared according to the method disclosed in the literature: Biochimica et Biophysica Acta, 1126, 73-80, 1992. The ACAT activity was determined by a modified method of the method disclosed in the above literature: Biochimica et Biophysica Acta, 1126, 73-80, 1992, i.e., using radioactive [9, 10-H]oleic acid and exogenous cholesterol contained in the liposome which was reconstituted according to the method disclosed in the literature: Biochimica et Biophysica Acta, 1213, 127-134, 1994, and calculated from the radioactivity of the labeled cholesterolyl oleate.

Regarding `CCCCn1c(=O)c(NC(=O)Nc2c(C(C)C)cccc2C(C)C)c(-c2cccc(C#CCN3CCCC3)c2)c2cccnc21` [Example 90, N-[1-butyl-4-[3-{3-(1-pyrrolidinyl)-1-propynyl)phenyl}-1,2-dihydro-2-oxo-1,8-naphthyridin-3-yl)-N'-(2,6-diisopropylphenyl)urea], the “ACAT inhibitory rate (%) 10^-7 M” value in the test on ACAT [1] is given as 39%. On ACAT [2], the inhibition at 0.1 µM was 96%.
